Reference: US8148373B2, “Compounds” (AstraZeneca AB, priority 2008, dated 2012)
Where a name gives a salt, the structure may show the parent alone.

Key:
[1] = target: T1, Adrenergic β2 (H292 cells) (Homo sapiens, UniProt P07550); assay: Assay for Adrenergic β2 Mediated cAMP Production (concentration response, AlphaScreen cAMP detection); type: cell-based; conditions: for EC50: cAMP production, 60 minutes at room temperature, 300 μM rolipram, read-out: β2 pEC50 (converted); for β2 Intrinsic activity: fraction relative to the maximum activity determined for formoterol
T1 construct: endogenous in cells; host or cells: H292 cells
T1 sequence (P07550 whole entry): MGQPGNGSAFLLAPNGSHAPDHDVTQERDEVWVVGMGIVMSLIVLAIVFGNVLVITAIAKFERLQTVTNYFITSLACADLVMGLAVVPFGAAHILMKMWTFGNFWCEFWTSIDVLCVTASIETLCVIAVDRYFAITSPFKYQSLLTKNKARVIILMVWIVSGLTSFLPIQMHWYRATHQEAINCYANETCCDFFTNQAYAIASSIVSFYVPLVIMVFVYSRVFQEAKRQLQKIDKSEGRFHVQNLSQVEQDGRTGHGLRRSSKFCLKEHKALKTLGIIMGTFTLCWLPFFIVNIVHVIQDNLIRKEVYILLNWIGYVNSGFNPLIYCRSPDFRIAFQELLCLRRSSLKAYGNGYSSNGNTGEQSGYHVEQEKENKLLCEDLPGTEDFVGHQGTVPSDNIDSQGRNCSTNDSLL
In short: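 H292 cells plated overnight, pre-treated with rolipram (300 μM final) 10 min, then compound 60 min at room temperature in HBSS/10 mM HEPES pH7.4/5 mM glucose, 1% DMSO. Lysate cAMP read by AlphaScreen against a cAMP standard curve; 4-parameter fit gives pEC50 and intrinsic activity as fraction of formoterol maximum.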

[2] = target: T2, human muscarinic acetylcholine M3 receptor (M3-ACh) (Homo sapiens, UniProt P20309); assay: Muscarinic 3 Receptor Binding Assay ([3H]NMS competition, SPA); conditions: [3H]NMS 0.1 nM, CHO-K1 cell membranes, 16 hours at room temperature; read-out: M3 pIC50 (converted)
T2 construct: expressed in transfected cells; host or cells: CHO-K1 (Chinese Hamster Ovary) cell membranes
T2 sequence (P20309 whole entry): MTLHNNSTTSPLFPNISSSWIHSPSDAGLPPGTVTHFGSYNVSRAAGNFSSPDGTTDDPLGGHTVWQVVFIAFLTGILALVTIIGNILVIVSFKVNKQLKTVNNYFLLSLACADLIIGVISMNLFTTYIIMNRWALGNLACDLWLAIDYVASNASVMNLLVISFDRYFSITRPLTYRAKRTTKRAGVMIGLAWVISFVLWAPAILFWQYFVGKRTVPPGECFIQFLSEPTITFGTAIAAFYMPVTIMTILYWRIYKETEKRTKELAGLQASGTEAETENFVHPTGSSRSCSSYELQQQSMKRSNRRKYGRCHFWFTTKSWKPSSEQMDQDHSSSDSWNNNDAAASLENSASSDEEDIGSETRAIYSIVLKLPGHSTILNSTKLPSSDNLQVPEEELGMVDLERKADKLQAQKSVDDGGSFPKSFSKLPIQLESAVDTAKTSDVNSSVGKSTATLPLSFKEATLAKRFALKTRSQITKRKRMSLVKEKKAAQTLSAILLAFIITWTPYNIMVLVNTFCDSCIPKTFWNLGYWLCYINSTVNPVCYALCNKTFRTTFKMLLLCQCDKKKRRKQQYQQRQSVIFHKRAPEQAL
In short: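 Competition SPA binding of 0.1 nM [3H]NMS (quarter Kd) to membranes from CHO-K1 cells expressing human M3, in 20 mM HEPES pH 7.4, 5 mM MgCl2, 1% DMSO. Incubated 16 h at room temperature; non-specific binding with 1 µM atropine. pIC50 from 50% reduction of specific binding.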

SMILES | EC50 [1] [nM] | β2 Intrinsic activity [1] | IC50 [2] [nM]
CC(C)c1nc(C(=O)N2CCOC3(CCN(Cc4cccc(OCCNC[C@H](O)c5ccc(O)c6[nH]c(=O)sc56)c4)CC3)C2)cs1 [Example 64, (R)-4-Hydroxy-7-(1-hydroxy-2-(2-(3-((4-(2-isopropylthiazole-4-carbonyl)-1-oxa-4,9-diazaspiro[5.5]undecan-9-yl)methyl)phenoxy)ethylamino)ethyl)benzo[d]thiazol-2(3H)-one ditrifluoroacetate] | 50.1 | 0.9 | 0.2
Cc1ccc(C(=O)N2CCOC3(CCN(CCCCCCCCCNC[C@H](O)c4ccc(O)c5[nH]c(=O)sc45)CC3)C2)s1 [Example 111, (R)-4-Hydroxy-7-(1-hydroxy-2-(9-(4-(5-methylthiophene-2-carbonyl)-1-oxa-4,9-diazaspiro[5.5]undecan-9-yl)nonylamino)ethyl)benzo[d]thiazol-2(3H)-one formate] | 31.6 | 0.8 | 0.794
CC(C)c1cc(C(=O)N2CCOC3(CCN(CCCCCCCNC[C@H](O)c4ccc(O)c5[nH]c(=O)sc45)CC3)C2)cs1 [Example 284, (R)-4-Hydroxy-7-(1-hydroxy-2-(7-(4-(5-isopropylthiophene-3-carbonyl)-1-oxa-4,9-diazaspiro[5.5]undecan-9-yl)heptylamino)ethyl)benzo[d]thiazol-2(3H)-one formate] | 12.6 | 0.9 | 2
Cc1nc(C(=O)N2CCOC3(CCN(CCOc4cc(C)c(CNC[C@H](O)c5ccc(O)c6[nH]c(=O)ccc56)cc4C)CC3)C2)cs1 [Example 97, (R)-5-(2-(2,5-Dimethyl-4-(2-(4-(2-methylthiazole-4-carbonyl)-1-oxa-4,9-diazaspiro[5.5]undecan-9-yl)ethoxy)benzylamino)-1-hydroxyethyl)-8-hydroxyquinolin-2(1H)-one ditrifluoroacetate] | > 3160 | 1.5 | 6.31
CC(C)c1nc(C(=O)N2CCOC3(CCN(Cc4ccc(F)c(CCNC[C@H](O)c5ccc(O)c6[nH]c(=O)ccc56)c4F)CC3)C2)cs1 [Example 46, (R)-5-(2-(2,6-Difluoro-3-((4-(2-isopropylthiazole-4-carbonyl)-1-oxa-4,9-diazaspiro[5.5]undecan-9-yl)methyl)phenethylamino)-1-hydroxyethyl)-8-hydroxyquinolin-2(1H)-one ditrifluoroacetate] | 79.4 | 1 | 6.31
CC(C)c1nc(C(=O)N2CCOC3(CCN(Cc4cccc(CCNC[C@H](O)c5ccc(O)c6[nH]c(=O)sc56)c4Cl)CC3)C2)cs1 [Example 80, (R)-7-(2-(2-Chloro-3-((4-(2-isopropylthiazole-4-carbonyl)-1-oxa-4,9-diazaspiro[5.5]undecan-9-yl)methyl)phenethylamino)-1-hydroxyethyl)-4-hydroxybenzo[d]thiazol-2(3H)-one ditrifluoroacetate] | 6.31 | 0.8 | 5.01
Cc1nc(C(=O)N2CCOC3(CCN(CCc4ccc(CNC[C@H](O)c5ccc(O)c6[nH]c(=O)ccc56)s4)CC3)C2)cs1 [Example 98, (R)-8-Hydroxy-5-(1-hydroxy-2-((5-(2-(4-(2-methylthiazole-4-carbonyl)-1-oxa-4,9-diazaspiro[5.5]undecan-9-yl)ethyl)thiophen-2-yl)methylamino)ethyl)quinolin-2(1H)-one ditrifluoroacetate] | 2000 | 0.4 | 1.26
CC(C)c1nc(C(=O)N2CCOC3(CCN(Cc4ccc(C(F)(F)F)c(CCNC[C@H](O)c5ccc(O)c6[nH]c(=O)ccc56)c4)CC3)C2)cs1 [Example 273, (R)-8-Hydroxy-5-(1-hydroxy-2-(5-((4-(2-isopropylthiazole-4-carbonyl)-1-oxa-4,9-diazaspiro[5.5]undecan-9-yl)methyl)-2-(trifluoromethyl)phenethylamino)ethyl)quinolin-2(1H)-one ditrifluoroacetate] | 398 | 0.5 | 79.4
O=C(c1nc2ccccc2s1)N1CCOC2(CCN(CCOc3ccc(CNC[C@H](O)c4ccc(O)c5[nH]c(=O)sc45)cc3)CC2)C1 [Example 106, (R)-7-(2-(4-(2-(4-(Benzo[d]thiazole-2-carbonyl)-1-oxa-4,9-diazaspiro[5.5]undecan-9-yl)ethoxy)benzylamino)-1-hydroxyethyl)-4-hydroxybenzo[d]thiazol-2(3H)-one formate] | 100 | 0.8 | 200
CCCc1nc(C(=O)N2CCOC3(CCN(Cc4cc(F)cc(CCNC[C@H](O)c5ccc(O)c6[nH]c(=O)sc56)c4)CC3)C2)cs1 [Example 56, (R)-7-(2-(3-Fluoro-5-((4-(2-propylthiazole-4-carbonyl)-1-oxa-4,9-diazaspiro[5.5]undecan-9-yl)methyl)phenethylamino)-1-hydroxyethyl)-4-hydroxybenzo[d]thiazol-2(3H)-one ditrifluoroacetate] | 7.94 | 1 | 2.51
Cc1ccc(C(=O)N2CCOC3(CCN(Cc4cc(CCNC[C@H](O)c5ccc(O)c6[nH]c(=O)sc56)ccc4F)CC3)C2)s1 [Example 29, (R)-7-(2-(4-Fluoro-3-((4-(5-methylthiophene-2-carbonyl)-1-oxa-4,9-diazaspiro[5.5]undecan-9-yl)methyl)phenethylamino)-1-hydroxyethyl)-4-hydroxybenzo[d]thiazol-2(3H)-one ditrifluoroacetate] | 1.58 | 1 | 3.98
CC(C)c1csc(C(=O)N2CCOC3(CCN(Cc4cc(F)cc(CCNC[C@H](O)c5ccc(O)c6[nH]c(=O)sc56)c4)CC3)C2)n1 [Example 53, (R)-7-(2-(3-Fluoro-5-((4-(4-isopropylthiazole-2-carbonyl)-1-oxa-4,9-diazaspiro[5.5]undecan-9-yl)methyl)phenethylamino)-1-hydroxyethyl)-4-hydroxybenzo[d]thiazol-2(3H)-one ditrifluoroacetate] | 10 | 1 | 12.6
CC(C)c1cc(C(=O)N2CCOC3(CCN(Cc4cc(CCNC[C@H](O)c5ccc(O)c6[nH]c(=O)sc56)cs4)CC3)C2)cs1 [Example 264, (R)-4-Hydroxy-7-(1-hydroxy-2-(2-(5-((4-(5-isopropylthiophene-3-carbonyl)-1-oxa-4,9-diazaspiro[5.5]undecan-9-yl)methyl)thiophen-3-yl)ethylamino)ethyl)benzo[d]thiazol-2(3H)-one ditrifluoroacetate] | 20 | 1 | 7.94
CC(C)c1nc(C(=O)N2CCOC3(CCN(Cc4cc(CCNC[C@H](O)c5ccc(O)c6[nH]c(=O)sc56)cs4)CC3)C2)cs1 [Example 36, (R)-4-Hydroxy-7-(1-hydroxy-2-(2-(5-((4-(2-isopropylthiazole-4-carbonyl)-1-oxa-4,9-diazaspiro[5.5]undecan-9-yl)methyl)thiophen-3-yl)ethylamino)ethyl)benzo[d]thiazol-2(3H)-one ditrifluoroacetate] | 6.31 | 1 | 0.501
CC(C)c1nc(C(=O)N2CCOC3(CCN(Cc4cccc(SCCNC[C@H](O)c5ccc(O)c6[nH]c(=O)sc56)c4)CC3)C2)cs1 [Example 65, (R)-4-Hydroxy-7-(1-hydroxy-2-(2-(3-((4-(2-isopropylthiazole-4-carbonyl)-1-oxa-4,9-diazaspiro[5.5]undecan-9-yl)methyl)phenylthio)ethylamino)ethyl)benzo[d]thiazol-2(3H)-one ditrifluoroacetate] | 100 | 0.9 | 0.631
Cc1nc(C(=O)N2CCOC3(CCN(CCOc4cc(C)c(CNC[C@H](O)c5ccc(O)c6[nH]c(=O)sc56)cc4C)CC3)C2)cs1 [Example 18, (R)-7-(2-(2,5-Dimethyl-4-(2-(4-(2-methylthiazole-4-carbonyl)-1-oxa-4,9-diazaspiro[5.5]undecan-9-yl)ethoxy)benzylamino)-1-hydroxyethyl)-4-hydroxybenzo[d]thiazol-2(3H)-one ditrifluoroacetate] | 63.1 | 1 | 2.51
Cc1ccc(C(=O)N2CCOC3(CCN(Cc4ccc(F)c(CCNC[C@H](O)c5ccc(O)c6[nH]c(=O)sc56)c4F)CC3)C2)s1 [Example 34, (R)-7-(2-(2,6-Difluoro-3-((4-(5-methylthiophene-2-carbonyl)-1-oxa-4,9-diazaspiro[5.5]undecan-9-yl)methyl)phenethylamino)-1-hydroxyethyl)-4-hydroxybenzo[d]thiazol-2(3H)-one ditrifluoroacetate] | 3.16 | 1 | 20
Cc1ccc(S(=O)(=O)N2CCOC3(CCN(Cc4cc(F)cc(CCNC[C@H](O)c5ccc(O)c6[nH]c(=O)sc56)c4)CC3)C2)s1 [Example 63, (R)-7-(2-(3-Fluoro-5-((4-(5-methylthiophen-2-ylsulfonyl)-1-oxa-4,9-diazaspiro[5.5]undecan-9-yl)methyl)phenethylamino)-1-hydroxyethyl)-4-hydroxybenzo[d]thiazol-2(3H)-one ditrifluoroacetate] | 5.01 | 1 | > 1000
